# Results from patent US7259154B2, “Pyrrolopyrimidines” (Aventis Pharmaceuticals Inc., priority 2001, dated 2007).
row,Structure (SMILES),melting point
1,"COc1ccc2c(c1)c(-c1cc3c(OC)ncnc3[nH]1)cn2C [Example 10, 4-Methoxy-6-(5-methoxy-1-methyl-1H-indol-3-yl)-7H-pyrrolo[2,3-d]pyrimidine]",184 °C
2,"COc1ccc2[nH]cc(-c3cc4c(OC)ncnc4[nH]3)c2c1 [Example 11, 4-Methoxy-6-(5-methoxy-1H-indol-3-yl)-7H-pyrrolo[2,3-d]pyrimidine]",> 260 °C
